Assay results as given in article PMC13586308, “Cell type–selective targeting by heterobifunctional protein binders via in-cell enrichment” (Nature Communications, 2026).
Read-outs that look alike come from different tables or passages of the source.

Tests used:
BRD3BD1 = target: T1, BRD3BD1 (Homo sapiens, UniProt Q15059); experiment: competitive FP assay, BRD3 BD1 -/+ FKBP12; assay type: binding
T1 construct: to the isolated BD1 and BD2 domains of BRD2, BRD3 and BRD4

FKBP12 [1] = target: T2, FKBP12 (Homo sapiens, UniProt P62942); experiment: competitive fluorescence polarization assay, binding to FKBP12; conditions: competitive FP assay
BRD4 43-463 = BRD4 43-463 (Homo sapiens, UniProt O60885); experiment: competitive FP assay, BRD4 tandem bromo domain construct; assay type: binding
BRD4^BD1 = target: T3, BRD4^BD1 (Homo sapiens, UniProt O60885); experiment: competitive fluorescence polarization assay, BRD4 BD1 -/+ presenter protein; assay type: binding
T3 construct: to the isolated BD1 and BD2 domains of BRD2, BRD3 and BRD4

BRD2BD1 = target: T4, BRD2BD1 (Homo sapiens, UniProt P25440); experiment: competitive FP assay, BRD2 BD1 -/+ FKBP12; assay type: binding
T4 construct: to the isolated BD1 and BD2 domains of BRD2, BRD3 and BRD4
T4 sequence (P25440 74-180 limits assumed): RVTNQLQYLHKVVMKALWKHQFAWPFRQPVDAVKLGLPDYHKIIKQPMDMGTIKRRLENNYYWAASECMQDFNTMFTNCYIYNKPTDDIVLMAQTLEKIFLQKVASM

BRD2BD2 = BRD2BD2 (Homo sapiens, UniProt P25440); experiment: competitive FP assay, BRD2 BD2 -/+ FKBP12; assay type: binding
BRD2BD2, sequence (P25440 344-453 limits assumed): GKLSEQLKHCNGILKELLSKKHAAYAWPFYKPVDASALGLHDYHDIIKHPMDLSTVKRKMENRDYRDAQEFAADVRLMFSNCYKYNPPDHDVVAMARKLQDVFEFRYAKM

BRD4 43-463 Y97A [2] = target: BRD4 43-463 Y97A (Homo sapiens, UniProt O60885, Y97A); experiment: competitive FP assay, BRD4 tandem construct Y97A; assay type: binding
BRD4 43-463 Y97A [3] = experiment: competitive FP assay, BRD4 tandem construct Y97A; assay type: binding
[4] = target: T5, His-BRD4^BD2 + eGFP-FKBP12 (Homo sapiens, UniProt O60885+P62942); experiment: HTRF ternary complex formation BRD4 BD2 + EGFP-FKBP12; assay type: binding; conditions: eGFP-FKBP12 5 µM, His-BRD4^BD2 100 nM; read-out: HTRF BRD4^BD2 + GFP-FKBP12 Kd
T5 construct: the His6-tag of the respective BD1 or BD2 domain of BRD4 and EGFP-labeled FKBP12

FKBP12 [5] = target: T2, FKBP12; experiment: NanoBRET FKBP12 in intact HEK293 cells; assay type: cell-based
BRD4^BD2 = target: T6, BRD4^BD2 (Homo sapiens, UniProt O60885); experiment: competitive fluorescence polarization assay, BRD4 BD2 -/+ presenter protein; assay type: binding
T6 construct: to the isolated BD1 and BD2 domains of BRD2, BRD3 and BRD4

BRD4 43-463 Y390A [6] = experiment: competitive FP assay, BRD4 tandem construct Y390A; assay type: binding
BRD4 43-463 Y390A [7] = target: BRD4 43-463 Y390A (Homo sapiens, UniProt O60885, Y390A); experiment: competitive FP assay, BRD4 tandem construct Y390A; assay type: binding
BRD3BD2 = target: T7, BRD3BD2 (Homo sapiens, UniProt Q15059); experiment: competitive FP assay, BRD3 BD2 -/+ FKBP12; assay type: binding
T7 construct: to the isolated BD1 and BD2 domains of BRD2, BRD3 and BRD4
T7 sequence (Q15059 306-415 limits assumed): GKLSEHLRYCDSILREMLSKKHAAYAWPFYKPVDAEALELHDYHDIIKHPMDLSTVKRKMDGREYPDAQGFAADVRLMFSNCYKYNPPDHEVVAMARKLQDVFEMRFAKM

MV4-11 cells = experiment: CellTiter-Glo cell viability, MV4-11; assay type: cell-based, human; conditions: Homo sapiens, MV4-11, 120 h; five days, without FKBP12 PROTAC; read-out: Cell toxicity (MV4-11) - FKBP12 PROTAC IC50
[8] = target: T8, His-BRD4^BD1 + eGFP-FKBP12 (Homo sapiens, UniProt O60885+P62942); experiment: HTRF ternary complex formation BRD4 BD1 + EGFP-FKBP12; assay type: binding; conditions: eGFP-FKBP12 5 µM, His-BRD4^BD1 100 nM; read-out: HTRF BRD4^BD1 + GFP-FKBP12 Kd
T8 construct: the His6-tag of the respective BD1 or BD2 domain of BRD4 and EGFP-labeled FKBP12

BRD4 = target: T9, BRD4 (Homo sapiens, UniProt O60885); experiment: NanoBRET BRD4, transient BRD4-NanoLuc in HEK293T cells; assay type: cell-based; conditions: intact HEK293 cells
T9 construct: full-length BRD4 fused to NanoLuc at N terminus; expressed in transfected cells; host or cells: HEK293T
Procedure, shortened: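 BRD4 engagement measured in HEK293T cells transiently expressing N-terminal NanoLuc-BRD4 (20 h), with BRD Tracer-02 at its KD concentration. Cells equilibrated with serially diluted inhibitors for 2 h at 37 °C. Donor 450 nm/acceptor 610 nm BRET read; IC50 from normalized 3-parameter fit.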

[9] = ratio of binding in absence or presence of FKBP12

T1 sequence (Q15059 34-140 limits assumed): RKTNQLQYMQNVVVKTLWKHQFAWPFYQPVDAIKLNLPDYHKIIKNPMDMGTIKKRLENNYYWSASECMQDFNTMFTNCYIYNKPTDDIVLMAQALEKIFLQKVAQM

For `Cc1sc2c(c1C)C(c1ccc(Cl)cc1)=NC(CC(=O)NCCOCCn1cc(COCC3CN(Cc4ccccn4)C(=O)C4CCCC3N4S(=O)(=O)c3cc(Cl)cc(Cl)c3)nn1)c1nnc(C)n1-2` (centres unmarked) [a1d], the “α BRD3BD1” value (BRD3BD1) was 7.4, the Kd (BRD3BD1; 15 µM FKBP12, read-out: Binding to BRD3BD1 + FKBP12 Kd) was 23 ± 5 nM and the Kd (BRD3BD1; absence of FKBP12, read-out: Binding to BRD3BD1 - FKBP12 Kd) was 170 ± 27 nM. The Kd (FKBP12 [1]) was 1 nM, the “α BRD4 43-463” value (BRD4 43-463) was 6.7 and the Kd (BRD4 43-463; Binding to BRD4 43-463 + FKBP12 Kd, 15 µM FKBP12) was 26 ± 3 nM. The Kd (BRD4 43-463; Binding to BRD4 43-463 - FKBP12 Kd, absence of FKBP12) was 175 ± 17 nM, the Kd (BRD4^BD1; 15 µM FKBP51FK1, read-out: Binding to BRD4BD1 + FKBP51FK1 Kd) was 500 ± 90 nM and the Kd (BRD4^BD1; absence of FKBP12, 2 nM JQ1-FL tracer, read-out: Binding to BRD4^BD1 - FKBP12 Kd) was 450 ± 70 nM. For the same compound, the Kd (BRD4^BD1; absence of FKBP51FK1 (SI Table 3), read-out: Binding to BRD4BD1 - FKBP51FK1 Kd) was 300 ± 50 nM, the Kd (BRD4^BD1; presence of 15 µM FKBP12, read-out: Binding to BRD4^BD1 + FKBP12 Kd (converted)) was 25 nM and the “α BRD4^BD1 (binding cooperativity factor)” value (BRD4^BD1; [9]) was 18. For the same compound, the Kd (BRD4^BD1; values quoted in rebuttal letter (earlier version of Tab. 1), read-out: binding to BRD4BD1 + FKBP12) was 26 nM, the “α BRD2BD1” value (BRD2BD1) was 7.2 and the Kd (BRD2BD1; 15 µM FKBP12, read-out: Binding to BRD2BD1 + FKBP12 Kd) was 36 ± 9 nM. The Kd (BRD2BD1; absence of FKBP12, read-out: Binding to BRD2BD1 - FKBP12 Kd) was 260 ± 60 nM, the “α BRD2BD2” value (BRD2BD2) was 2.5 and the Kd (BRD2BD2; 15 µM FKBP12, read-out: Binding to BRD2BD2 + FKBP12 Kd) was 75 ± 20 nM. It also gave a Kd (BRD2BD2; absence of FKBP12, read-out: Binding to BRD2BD2 - FKBP12 Kd) of 190 ± 50 nM, a Kd (BRD4 43-463 Y97A [2]; Binding to BRD4 43-463 Y97A + FKBP12 Kd, 15 µM FKBP12) of 59 ± 5 nM and a Kd (BRD4 43-463 Y97A [2]; Binding to BRD4 43-463 Y97A - FKBP12 Kd, absence of FKBP12) of 130 ± 16 nM. The “α BRD4 43-463 Y97A” value (BRD4 43-463 Y97A [3]) was 2.2, the Kd [4] was 26 ± 6 nM and the IC50 (FKBP12 [5]) was 14 nM. For the same compound, the Kd (BRD4^BD2; 15 µM FKBP51FK1, read-out: Binding to BRD4BD2 + FKBP51FK1 Kd) was 470 ± 80 nM, the Kd (BRD4^BD2; absence of FKBP12, 2 nM JQ1-FL tracer, read-out: Binding to BRD4^BD2 - FKBP12 Kd) was 320 ± 50 nM and the Kd (BRD4^BD2; absence of FKBP51FK1 (SI Table 3), read-out: Binding to BRD4BD2 - FKBP51FK1 Kd) was 180 ± 30 nM. The Kd (BRD4^BD2; presence of 15 µM FKBP12, read-out: Binding to BRD4^BD2 + FKBP12 Kd (converted)) was 70 nM, the “α BRD4^BD2 (binding cooperativity factor)” value (BRD4^BD2; [9]) was 4.5 and the “α BRD4 43-463 Y390A” value (BRD4 43-463 Y390A [6]) was 10. For the same compound, the Kd (BRD4 43-463 Y390A [7]; Binding to BRD4 43-463 Y390A + FKBP12 Kd, 15 µM FKBP12) was 18 ± 2 nM, the Kd (BRD4 43-463 Y390A [7]; absence of FKBP12) was 183 ± 13 nM and the “α BRD3BD2” value (BRD3BD2) was 1.0. For the same compound, the Kd (BRD3BD2; 15 µM FKBP12, read-out: Binding to BRD3BD2 + FKBP12 Kd) was 140 ± 30 nM, the Kd (BRD3BD2; absence of FKBP12, read-out: Binding to BRD3BD2 - FKBP12 Kd) was 150 ± 30 nM and the IC50 (MV4-11 cells) was 1.7 nM. The Kd [8] was 9 ± 3 nM and the IC50 (BRD4) was 820 nM.
